In ChEMBL document CHEMBL1146213, “Biscembranoids and their probable biogenetic precursor from the Hainan soft coral Sarcophyton tortuosum” (J Nat Prod, 2007):
Calls of active or inactive are those of the source.

Assays:
Cladosporium cucumerinum = assay: Antifungal activity against Cladosporium cucumerinum; format: functional, organism-based
P388 = assay: Antitumor activity against P388 cells; format: functional, cell-based; conditions: Mus musculus
A549 = assay: Antitumor activity against A549 cells; format: functional, cell-based; conditions: Homo sapiens

Measured: Activity

COC(=O)[C@@]12CC(=O)[C@@H](C(C)C)CC(=O)[C@@H](C)CCC[C@@H](C)CC(=O)[C@@H]1CC(C)=C1[C@H](O)C[C@](C)(Cl)[C@H]3CC[C@@](C)(O3)[C@H](O)CC/C(C)=C/[C@H]12
inactive: all assays above

COC(=O)[C@@]12CC(=O)[C@@H](C(C)C)CC(=O)[C@@H](C)CCC[C@@H](C)CC(=O)[C@@H]1CC(C)=C1[C@H](O)C[C@@]3(C)O[C@@H]3CC[C@@]3(C)O[C@@H]3CC/C(C)=C/[C@H]12
inactive: all assays above

C=C1CC[C@@H]2O[C@@H]1CC/C(C)=C/[C@@H]1C(=C(C)C[C@H]3C(=O)C[C@H](C)CCC[C@H](C)C(=O)C[C@H](C(C)C)C(=O)C[C@@]13C(=O)OC)[C@H](O)C[C@@]2(C)O
inactive: all assays above

COC(=O)[C@@]12CC(=O)[C@@H](C(C)C)CC(=O)[C@@H](C)CCC[C@@H](C)CC(=O)[C@@H]1CC(C)=C1[C@H](O)C[C@@](C)(Cl)[C@@H](O)CC[C@@]3(C)O[C@@H]3CC/C(C)=C/[C@H]12
inactive: all assays above

COC(=O)[C@@]12CC(=O)[C@@H](C(C)C)CC(=O)[C@@H](C)CCC[C@@H](C)/C=C3\O[C@@](C)(C[C@@H]31)/C1=C/C[C@](C)(O)[C@H]3CC[C@@](C)(O3)[C@H](O)CC/C(C)=C/[C@H]12
inactive: all assays above

COC(=O)/C1=C/C(=O)C[C@H](C)CCC[C@H](C)C(=O)C[C@H](C(C)C)C(=O)C1
inactive: all assays above
